Reference: PubChem BioAssay (NCI)
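Cultured in 96-well plates, cells were exposed to test compound for 48 hours across five concentrations. Abbreviation: GI50, concentration required for 50% inhibition of growth. At the TGI there is no net growth.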

How the values were obtained:
Assay in all cases: DTP human tumour cell line panel, 48 h
786-0 renal = system: 786-0 renal
A498 renal = system: A498 renal
A549 NSCLC = system: A549 NSCLC
ACHN renal = system: ACHN renal
BT-549 breast = system: BT-549 breast
CAKI-1 renal = system: CAKI-1 renal
CCRF-CEM leukemia = system: CCRF-CEM leukemia
COLO 205 colon = system: COLO 205 colon
DU-145 prostate = system: DU-145 prostate
EKVX NSCLC = system: EKVX NSCLC
HCC-2998 colon = system: HCC-2998 colon
HCT-116 colon = system: HCT-116 colon
HCT-15 colon = system: HCT-15 colon
HL-60(TB) leukemia = system: HL-60(TB) leukemia
HOP-62 NSCLC = system: HOP-62 NSCLC
HOP-92 NSCLC = system: HOP-92 NSCLC
HS 578T breast = system: HS 578T breast
HT29 colon = system: HT29 colon
IGROV1 ovarian = system: IGROV1 ovarian
K-562 leukemia = system: K-562 leukemia
KM12 colon = system: KM12 colon
LOX IMVI melanoma = system: LOX IMVI melanoma
M14 melanoma = system: M14 melanoma
MALME-3M melanoma = system: MALME-3M melanoma
MCF7 breast = system: MCF7 breast
MDA-MB-231 breast = system: MDA-MB-231 breast
MDA-MB-435 = system: MDA-MB-435
MOLT-4 leukemia = system: MOLT-4 leukemia
NCI-H23 lung = system: NCI-H23 lung
NCI-H460 lung = system: NCI-H460 lung
NCI-H522 lung = system: NCI-H522 lung
NCI/ADR-RES ovarian = system: NCI/ADR-RES ovarian
OVCAR-3 ovarian = system: OVCAR-3 ovarian
OVCAR-4 ovarian = system: OVCAR-4 ovarian
OVCAR-5 ovarian = system: OVCAR-5 ovarian
OVCAR-8 ovarian = system: OVCAR-8 ovarian
PC-3 prostate = system: PC-3 prostate
RPMI-8226 leukemia = system: RPMI-8226 leukemia
RXF 393 renal = system: RXF 393 renal
SF-268 CNS = system: SF-268 CNS
SF-295 CNS = system: SF-295 CNS
SF-539 CNS = system: SF-539 CNS
SK-MEL-2 melanoma = system: SK-MEL-2 melanoma
SK-MEL-28 melanoma = system: SK-MEL-28 melanoma
SK-MEL-5 melanoma = system: SK-MEL-5 melanoma
SK-OV-3 ovarian = system: SK-OV-3 ovarian
SN12C renal = system: SN12C renal
SNB-19 CNS = system: SNB-19 CNS
SNB-75 CNS = system: SNB-75 CNS
SR leukemia = system: SR leukemia
SW-620 colon = system: SW-620 colon
T-47D breast = system: T-47D breast
TK-10 renal = system: TK-10 renal
U251 CNS = system: U251 CNS
UACC-257 melanoma = system: UACC-257 melanoma
UACC-62 melanoma = system: UACC-62 melanoma
UO-31 renal = system: UO-31 renal

O=C(O)CCC/C=C\C[C@H]1C=CC(=O)/C1=C/C[C@@H](O)CCc1cccc(C(F)(F)F)c1
GI50 (786-0 renal): 2.95 µM
TGI (786-0 renal): 6.61 µM
GI50 (A498 renal): 2.13 µM
TGI (A498 renal): 4.06 µM
GI50 (A549 NSCLC): 3.2 µM
TGI (A549 NSCLC): 9.76 µM
GI50 (ACHN renal): 1.65 µM
TGI (ACHN renal): 3.22 µM
GI50 (BT-549 breast): 2.83 µM
TGI (BT-549 breast): 11.3 µM
GI50 (CAKI-1 renal): 3.92 µM
TGI (CAKI-1 renal): 14.7 µM
GI50 (CCRF-CEM leukemia): 0.465 µM
TGI (CCRF-CEM leukemia): 10.8 µM
GI50 (COLO 205 colon): 2.26 µM
TGI (COLO 205 colon): 5.49 µM
GI50 (DU-145 prostate): 2.43 µM
TGI (DU-145 prostate): 10.3 µM
GI50 (EKVX NSCLC): 3.73 µM
TGI (EKVX NSCLC): 14.3 µM
GI50 (HCC-2998 colon): 1.87 µM
TGI (HCC-2998 colon): 3.5 µM
GI50 (HCT-116 colon): 1.27 µM
TGI (HCT-116 colon): 3.17 µM
GI50 (HCT-15 colon): 1.79 µM
TGI (HCT-15 colon): 4.88 µM
GI50 (HL-60(TB) leukemia): 2.37 µM
TGI (HL-60(TB) leukemia): 6.9 µM
GI50 (HOP-62 NSCLC): 2.93 µM
TGI (HOP-62 NSCLC): 7.27 µM
GI50 (HOP-92 NSCLC): 3.32 µM
TGI (HOP-92 NSCLC): 8.2 µM
GI50 (HS 578T breast): 13.7 µM
TGI (HS 578T breast): 71.2 µM
GI50 (HT29 colon): 2.69 µM
TGI (HT29 colon): 6.41 µM
GI50 (IGROV1 ovarian): 3.41 µM
TGI (IGROV1 ovarian): 13.6 µM
GI50 (K-562 leukemia): 2.24 µM
TGI (K-562 leukemia): 10.1 µM
GI50 (KM12 colon): 1.89 µM
TGI (KM12 colon): 4.62 µM
GI50 (LOX IMVI melanoma): 1.29 µM
TGI (LOX IMVI melanoma): 2.89 µM
GI50 (M14 melanoma): 2 µM
TGI (M14 melanoma): 6.76 µM
GI50 (MALME-3M melanoma): 4.75 µM
TGI (MALME-3M melanoma): 19.3 µM
GI50 (MCF7 breast): 0.444 µM
TGI (MCF7 breast): 12.4 µM
GI50 (MDA-MB-231 breast): 5.19 µM
TGI (MDA-MB-231 breast): 21.9 µM
GI50 (MDA-MB-435): 1.82 µM
TGI (MDA-MB-435): 4.94 µM
GI50 (MOLT-4 leukemia): 2.21 µM
TGI (MOLT-4 leukemia): 7.34 µM
GI50 (NCI-H23 lung): 2.25 µM
TGI (NCI-H23 lung): 6.37 µM
GI50 (NCI-H460 lung): 2.23 µM
TGI (NCI-H460 lung): 4.96 µM
GI50 (NCI-H522 lung): 1.35 µM
TGI (NCI-H522 lung): 3.8 µM
GI50 (NCI/ADR-RES ovarian): 3.15 µM
TGI (NCI/ADR-RES ovarian): 29.3 µM
GI50 (OVCAR-3 ovarian): 1.99 µM
TGI (OVCAR-3 ovarian): 5.61 µM
GI50 (OVCAR-4 ovarian): 3.94 µM
TGI (OVCAR-4 ovarian): 16.8 µM
GI50 (OVCAR-5 ovarian): 4.15 µM
TGI (OVCAR-5 ovarian): 11.8 µM
GI50 (OVCAR-8 ovarian): 2.86 µM
TGI (OVCAR-8 ovarian): 11.6 µM
GI50 (PC-3 prostate): 3.12 µM
TGI (PC-3 prostate): 10.3 µM
GI50 (RPMI-8226 leukemia): 1.91 µM
TGI (RPMI-8226 leukemia): 12.2 µM
GI50 (RXF 393 renal): 2 µM
TGI (RXF 393 renal): 3.61 µM
GI50 (SF-268 CNS): 3.22 µM
TGI (SF-268 CNS): 16.5 µM
GI50 (SF-295 CNS): 2.5 µM
TGI (SF-295 CNS): 6.09 µM
GI50 (SF-539 CNS): 2.46 µM
TGI (SF-539 CNS): 6.57 µM
GI50 (SK-MEL-2 melanoma): 2.65 µM
TGI (SK-MEL-2 melanoma): 7.98 µM
GI50 (SK-MEL-28 melanoma): 1.52 µM
TGI (SK-MEL-28 melanoma): 4.4 µM
GI50 (SK-MEL-5 melanoma): 1.71 µM
TGI (SK-MEL-5 melanoma): 3.14 µM
GI50 (SK-OV-3 ovarian): 5.66 µM
TGI (SK-OV-3 ovarian): 18.3 µM
GI50 (SN12C renal): 3.41 µM
TGI (SN12C renal): 26.8 µM
GI50 (SNB-19 CNS): 2.01 µM
TGI (SNB-19 CNS): 4.8 µM
GI50 (SNB-75 CNS): 9.41 µM
TGI (SNB-75 CNS): 22.2 µM
GI50 (SR leukemia): 0.604 µM
TGI (SR leukemia): 7.22 µM
GI50 (SW-620 colon): 3.1 µM
TGI (SW-620 colon): 10.1 µM
GI50 (T-47D breast): 2.82 µM
TGI (T-47D breast): 17.5 µM
GI50 (TK-10 renal): 4.21 µM
TGI (TK-10 renal): 9.82 µM
GI50 (U251 CNS): 1.55 µM
TGI (U251 CNS): 3.45 µM
GI50 (UACC-257 melanoma): 2.36 µM
TGI (UACC-257 melanoma): 7.38 µM
GI50 (UACC-62 melanoma): 2.29 µM
TGI (UACC-62 melanoma): 6.94 µM
GI50 (UO-31 renal): 1.68 µM
TGI (UO-31 renal): 3.16 µM
